What was measured:
Type in all cases: cell-based, human
[1] = system: P-ERK (P-Thr202/P-Tyr204) in peripheral blood monocytes; assay: ERK phosphorylation in LPS activated monocytes from pretreated whole blood
Protocol: (§1) Whole blood samples from normal human donors were collected. 100 μL aliquots of the whole blood were inserted into the bottom of 12×75 mm tubes. In order to reduce the potential for contamination of the sample with unfixed cells, blood was removed from the side of the tubes with a cotton swab. 1-2 μL of a proteasome effector was added to a first portion of the tubes and these tubes were incubated for 2 hours at 37° C. in a water bath. In this example, the proteasome effector was Bortezomib or MG-132, both proteasome inhibitors. Following pretreatment with the proteasome effector, 2 μL of […] stock solution (100 ng) of an IκB degradation agonist was added to the tubes and the tubes were incubated from 1 minute to 60 minutes at 37° C. in a water bath. In this example, the agonist was lipopolysaccharide (LPS). A second portion of the tubes were treated with the IκB degradation agonist and no proteasome effector. 2 μL of an IκB degradation agonist was added to these tubes and the tubes were incubated from 1 minute to 60 minutes as described above. For control tubes, 2 μL of phosphate buffered saline (PBS) was added to the tubes and the tubes were incubated as described above.
(§2) Following incubation, the cells were fixed and permeabilized with a PerFix-P® kit (Beckman Coulter, Inc., Brea. Calif.) according to the manufacturer's instructions. The fixed and permeabilized cells were then washed with 2 mL of Wash Buffer (PBS (w/o Ca++/Mg++) with 2% fetal bovine serum (FBS), sterile filtered (0.22 μm filter)) in the tubes and centrifuged at 500×g for 4 minutes. The cell pellet was resuspended in 2 mL of cold (4° C.) Wash Buffer, centrifuged at 500×g for 4 minutes, and the supernatant was aspirated.
Following the above wash steps, the fixed and permeabilized cells were resuspended in 100 μL of cold Wash Buffer comprising antibodies to specific intracellular antigens (e.g., signaling targets including P-ERK, P-Akt, P-p38, P-SAPK, P-S6, and antibodies to IκB). The antibodies were labeled with different fluorochromes (e.g. fluorophores) to facilitate their-individual measurement of the intracellular antigens. […] For example, anti-CD14 antibodies were included to specifically label monocytes, anti-CD3 antibodies or anti-CD19 antibodies were included to specifically label T or B-cells respectively, and/or anti-CD38/CD138 antibodies were included to specifically label plasma cells. The cells were incubated with the antibodies for 30 minutes at room temperature and then the cells were washed in 2 mL of cold Wash Buffer and centrifuged as described above. The supernatant was aspirated and the cell pellet was resuspended in 350 μL of Resuspension Buffer (PerFix-P® kit) and analyzed on a flow cytometer (GALLIOS™) using a protocol with defined population gates and series of dual parameter histograms. A CD45-KO vs. SS dual parameter histogram was collected and a gate around the leukocyte population based on the CD45+ fluorescence and SS characteristics was drawn to exclude debris (CD45 negative events). A minimum of 2,500 CD14+ events were collected. […] The collected flow cytometric data was analyzed using KALUZA™ software.
(§3) Phosphorylation of signaling pathways activated by LPS, including ERK, Akt (activated by PI3 Kinase), and the ribosomal S6 protein (a marker of protein synthesis) were also monitored together with the degradation of IκB. […] The degradation of IκB in cells pretreated with MG-132 or GDC-0941 was monitored by flow cytometry as described in Example 1. […]

[2] = system: P-Akt (P-Ser473) in peripheral blood monocytes; assay: Akt phosphorylation in LPS activated monocytes from pretreated whole blood
Protocol: (§4) Whole blood samples from normal human donors were collected. 100 μL aliquots of the whole blood were inserted into the bottom of 12×75 mm tubes. In order to reduce the potential for contamination of the sample with unfixed cells, blood was removed from the side of the tubes with a cotton swab. 1-2 μL of a proteasome effector was added to a first portion of the tubes and these tubes were incubated for 2 hours at 37° C. in a water bath. In this example, the proteasome effector was Bortezomib or MG-132, both proteasome inhibitors. […]
(§5) Following the above wash steps, the fixed and permeabilized cells were resuspended in 100 μL of cold Wash Buffer comprising antibodies to specific intracellular antigens (e.g., signaling targets including P-ERK, P-Akt, P-p38, P-SAPK, P-S6, and antibodies to IκB). […] The supernatant was aspirated and the cell pellet was resuspended in 350 μL of Resuspension Buffer (PerFix-P® kit) and analyzed on a flow cytometer (GALLIOS™) using a protocol with defined population gates and series of dual parameter histograms. A CD45-KO vs. SS dual parameter histogram was collected and a gate around the leukocyte population based on the CD45+ fluorescence and SS characteristics was drawn to exclude debris (CD45 negative events). […] The collected flow cytometric data was analyzed using KALUZA™ software. […]

[3] = system: IκB in peripheral blood monocytes; assay: Flow cytometry assay, whole blood pretreated with effector: LPS induced degradation of IκB in monocytes; settings: whole blood pretreated with compound, then LPS
Protocol: as §1, with “2 μL of an IκB degradation agonist was added to these tubes and the tubes were incubated from 1 minute to 60 minutes as described above. For control tubes, 2 μL of phosphate buffered saline (PBS) was added to the tubes and the tubes were incubated as described above.” left out
Following the above wash steps, the fixed and permeabilized cells were resuspended in 100 μL of cold Wash Buffer comprising antibodies to specific intracellular antigens (e.g., signaling targets including P-ERK, P-Akt, P-p38, P-SAPK, P-S6, and antibodies to IκB). […] The supernatant was aspirated and the cell pellet was resuspended in 350 μL of Resuspension Buffer (PerFix-P® kit) and analyzed on a flow cytometer (GALLIOS™) using a protocol with defined population gates and series of dual parameter histograms. A CD45-KO vs. SS dual parameter histogram was collected and a gate around the leukocyte population based on the CD45+ fluorescence and SS characteristics was drawn to exclude debris (CD45 negative events). […] The collected flow cytometric data was analyzed using KALUZA™ software.
as §3

[4] = system: P-S6 (P-Ser235/P-Ser236) in peripheral blood monocytes; assay: S6 phosphorylation in LPS activated monocytes from pretreated whole blood
Protocol: as §4, §5

[5] = system: peripheral blood lymphocytes; assay: IκB degradation agonists in whole blood: IκB degradation and signaling pathway activation in lymphocytes; settings: for Pathways Activated: Target Cell Population: Lymphocytes (subpopulation)
Protocol: as §1, §2
(§6) Following the above wash steps, the fixed and permeabilized cells were resuspended in 100 μL of cold Wash Buffer comprising antibodies to specific intracellular antigens (e.g., signaling targets including P-ERK, P-Akt, P-p38, P-SAPK, P-S6, and antibodies to IκB). The antibodies were labeled with different fluorochromes (e.g. fluorophores) to facilitate their-individual measurement of the intracellular antigens. In order to target specific cell populations in the assay, antibodies capable of differentiating cell populations within the blood sample were also included in some of the tubes. For example, anti-CD14 antibodies were included to specifically label monocytes, anti-CD3 antibodies or anti-CD19 antibodies were included to specifically label T or B-cells respectively, and/or anti-CD38/CD138 antibodies were included to specifically label plasma cells. The cells were incubated with the antibodies for 30 minutes at room temperature and then the cells were washed in 2 mL of cold Wash Buffer and centrifuged as described above. The supernatant was aspirated and the cell pellet was resuspended in 350 μL of Resuspension Buffer (PerFix-P® kit) and analyzed on a flow cytometer (GALLIOS™) using a protocol with defined population gates and series of dual parameter histograms. A CD45-KO vs. SS dual parameter histogram was collected and a gate around the leukocyte population based on the CD45+ fluorescence and SS characteristics was drawn to exclude debris (CD45 negative events). A minimum of 2,500 CD14+ events were collected. A stop count region was set from the CD14-PC7 vs. SS histogram gated on monocytes. Dual parameter histograms gated on the appropriate populations were created to measure the populations of interest. The collected flow cytometric data was analyzed using KALUZA™ software.
(§7) Phosphorylation of signaling pathways activated by TNF-α, including ERK, Akt, and the ribosomal S6 protein, was monitored together with the degradation of IκB in peripheral blood WBCs. Whole blood samples were treated, activated, and processed as described in Example 1 and the degradation of IκB in peripheral blood cells was monitored by flow cytometry as described in Example 1. The IκB degradation agonist used in this example was TNF-α. […]

[6] = system: granulocytes; assay: IκB degradation agonists in whole blood: IκB degradation and signaling pathway activation in granulocytes; settings: Target Cell Population: Granulocytes
Protocol: as §1, §2
Following the above wash steps, the fixed and permeabilized cells were resuspended in 100 μL of cold Wash Buffer comprising antibodies to specific intracellular antigens (e.g., signaling targets including P-ERK, P-Akt, P-p38, P-SAPK, P-S6, and antibodies to IκB). The antibodies were labeled with different fluorochromes (e.g. fluorophores) to facilitate their-individual measurement of the intracellular antigens. […] The supernatant was aspirated and the cell pellet was resuspended in 350 μL of Resuspension Buffer (PerFix-P® kit) and analyzed on a flow cytometer (GALLIOS™) using a protocol with defined population gates and series of dual parameter histograms. A CD45-KO vs. SS dual parameter histogram was collected and a gate around the leukocyte population based on the CD45+ fluorescence and SS characteristics was drawn to exclude debris (CD45 negative events). […] The collected flow cytometric data was analyzed using KALUZA™ software.

[7] = system: peripheral blood monocytes; assay: IκB degradation agonists in whole blood: IκB degradation and signaling pathway activation in monocytes; settings: for Pathways Activated: Target Cell Population: Monocytes
Protocol: as §1, §2, §6, §7

[8] = pathway: P-ERK/MAP kinase (Ras > Raf)

## N#CC(=C(/N)Sc1ccccc1N)/C(C#N)=C(\N)Sc1ccccc1N [U0126]
[1]; LPS stimulated monocytes, single late ERK peak 8-10 minutes, FIG. 19
  ERK activation: inhibited

## CS(=O)(=O)N1CCN(Cc2cc3nc(-c4cccc5[nH]ncc45)nc(N4CCOCC4)c3s2)CC1 [GDC-0941]
[2]
  Akt activation: inhibited
[1]; LPS activated monocytes, 2-4 minutes
  "early" (first) ERK phosphorylation peak: inhibited
[1]; LPS activated monocytes, about 10 minutes
  "late" (second) ERK activation peak: unchanged
[3]
  effect on LPS induced degradation of IκB in monocytes: no effect
[4]
  activation of ribosomal S6 protein: minimal impact

## CCCCCCCCCCCCCC(=O)O[C@@H]1[C@@H](C)[C@@]2(O)[C@@H](C=C(CO)C[C@]3(O)C(=O)C(C)=C[C@@H]23)[C@@H]2C(C)(C)[C@]12OC(C)=O [PMA]
[5]; pathway: IκB > NFκB (PKC?)
  Pathways Activated: IκB > NFκB (PKC?)
[5]; [8]
  Pathways Activated: P-ERK/MAP kinase (Ras > Raf)
[5]; pathway: P-S6 (P-ERK)
  Pathways Activated: P-S6 (P-ERK)
[5]; agonist alone
  Akt activation in lymphocytes: not activated
  ERK activation in lymphocytes: activation of ERK
  degradation of IκB in lymphocytes: stimulated the degradation of IκB
[5]; over the 15 min time course
  lymphocytes with both degradation of IκB and activation of ERK: approximately 50%
[6]
  Pathways Activated: P-ERK/MAP kinase
[7]; pathway: (IκB is not degraded)
  Pathways Activated: (IκB is not degraded)
[7]; [8]
  Pathways Activated: P-ERK/MAP kinase (Ras > Raf)
[7]; agonist alone
  ERK activation in monocytes: activation of ERK
  degradation of IκB in monocytes: no degradation of IκB
